Data published in patent US20130203649A1, “INHIBITORS OF TLR SIGNALING BY TARGETING TIR DOMAIN INTERFACES” (UNIVERSITY OF MARYLAND, BALTIMORE, priority 2012, published 2013).
Residues, ends and D or L forms follow the SMILES beside them. No end group written: not given here.

Experiments:
Format in all cases: cell-based
TLR4 [1] = assay: LPS-induced cytokine mRNA expression in mouse macrophages (real-time RT-PCR); conditions: for LPS-induced IFNβ and Rantes cytokine mRNA production / LPS-induced IL-1β mRNA production: 5 μM peptide; for LPS-induced IFNβ and Rantes cytokine mRNA production / LPS-induced IL-1β mRNA production / LPS-induced IL-1β, IFNβ, and RANTES mRNA / LPS-induced TNFα mRNA expression: LPS 10 ng/ml, 1 h
Protocol: C57BL/6J mice were obtained from The Jackson Laboratory (Bar Harbor, Me.). Primary peritoneal macrophages were obtained by peritoneal lavage 4 days after intraperitoneal injection (3 ml) of sterile 3% thioglycolate broth. Washed cells were resuspended in RPMI 1640 which contained 2% FBS, 1% penicillin:streptomycin and 2 mM L-glutamine. After plating, cells were incubated overnight at 37° C. and then washed with PBS to remove non-adherent cells. Cells were exposed to peptides 30 min before stimulation with a TLR agonist.
Total cellular RNA was isolated using Tripure from Roche (San Francisco, Calif.) following manufacture's protocol. RNA was then reverse transcribed using AMV Reverse Transcriptase from Promega (Madison, Wis.) with poly-T priming as per manufacturer's directions. cDNA was then quantified by real-time PCR using Applied Biosystems Fast SYBR Green PCR Master Mix and an ABI Prism 7500HT cycler. Primers used for detection: hypoxanthine phosphoribosyltransferase (HPRT) (forward: […] (SEQ ID NO:51), reverse: […] (SEQ ID NO:52)), TNFα (forward: […] (SEQ ID NO:53), reverse: […] (SEQ ID NO:54)), IL-1β (forward: […] (SEQ ID NO:55), reverse: […] (SEQ ID NO:56)), IFNβ (forward: […] (SEQ ID NO:57), reverse: CTCGGACCACCATCCAGG (SEQ ID NO:58)) and RANTES (forward: […] (SEQ ID NO:59), reverse: […] (SEQ ID NO:60)). The primers were designed using Primer Express 2.0 (Applied Biosystems). Using HPRT as reference, the ΔCt method was used to calculate relative gene expression. One-way ANOVA was preformed, as well as Dunnett's multiple comparison post hoc test with a p≦0.01 selected as the level of significance.
Total RNA was isolated with Nucleospin RNA II kits (Macherey-Nagel, Bethlehem, Pa.), followed by DNase digestion. cDNA was synthesized from 1 μg RNA using Goscript transcriptase (Promega), and subjected to real-time PCR with gene-specific primers for HPRT, TNF-α, IL-1β, IFNβ, and RANTES on H7900 ABI system using Fast SYBR Green master mix (Applied Biosystems, Foster City, Calif.).
To evaluate peptide-inhibitory activities, we first measured LPS-induced cytokine mRNA expression. […] […] Decoy peptide TM4 is derived from the BB loop of TRAM TIR; we previously identified this peptide as an effective TLR4 inhibitor (19).

TLR4 [2] = assay: LPS-induced cytokine secretion by mouse macrophages (ELISA/multiplex); conditions: for LPS-induced Rantes production: 6 h supernatants; for Decrease in LPS-induced cytokine production (FIG. 2, 8 panels): LPS 10 ng/ml for 5, 6 or 24 h
Protocol: Cytokine secretion was measured in supernatant samples collected at 6 or 24 h time points and stored at −80° C. Samples were analyzed by a multiplex assay at the University of Maryland Baltimore Cytokine Core Facility using a Luminex 100 reader and Softmax Pro software, or by ELISA kits for mouse IL-6 or TNF-α from BioLegend (San Diego, Calif.) and LT-4000 microplate reader.
A total of 2×10^6 cells was plated in 12-well plates and treated with peptides for 30 min prior to LPS stimulation. TNF-α, IL-1β, IL-6, and IFN-β were measured using ELISA kits from BioLegend (San Diego, Calif.), as recommended by the manufacturer.

TLR4 [3] = assay: Inhibition of TLR4 signaling in thioglycollate-elicited mouse macrophages (effective concentration, overall inhibitory activity); conditions: for Inhibition of TLR4 signaling (overall): LPS-stimulated mouse macrophages; for Effective conc.: TLR4 pathway, thioglycollate-elicited mouse macrophages
Summary of the method: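 Thioglycollate-elicited peritoneal macrophages from C57BL/6J mice, adherent after overnight culture in RPMI with 2% FBS; cell-permeating (Antennapedia-fused) decoy peptides added 30 min before agonist. TLR4 stimulated with E. coli K235 LPS at 100 ng/ml final.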

Compound	LPS-induced IFNβ and Rantes cytokine mRNA production (TLR4 [1])	LPS-induced IL-1β mRNA production (TLR4 [1])	LPS-induced IL-1β, IFNβ, and RANTES mRNA (TLR4 [1]; 20 μM peptide)	LPS-induced TNFα mRNA expression (TLR4 [1]; 20 μM peptide)	LPS-induced Rantes production (TLR4 [2])	Decrease in LPS-induced cytokine production (FIG. 2, 8 panels) (TLR4 [2])	Inhibition of TLR4 signaling (overall) (TLR4 [3])	Effective conc. (TLR4 [3]) [µM]	LPS-induced (TLR4-mediated) cytokine mRNA expression (TLR4 [1]; 5 or 20 μM peptide 30 min before LPS, 1 or 5 h)	LPS-induced cytokine secretion (TLR4 [2]; 5 or 20 μM peptide, LPS 100 ng/ml, supernatants 24 h)	LPS-induced transcriptional activation of IL-1β and IFN-β genes (TLR4 [1]; 20 μM peptide)
CC[C@H](C)[C@H](NC(=O)[C@H](CCCCN)NC(=O)[C@@H](NC(=O)[C@H](CCC(N)=O)NC(=O)[C@@H](N)CCCNC(=N)N)[C@@H](C)CC)C(=O)N[C@@H](Cc1c[nH]c2ccccc12)C(=O)N[C@@H](Cc1ccccc1)C(=O)N[C@@H](CCC(N)=O)C(=O)N[C@@H](CC(N)=O)C(=O)N[C@@H](CCCNC(=N)N)C(=O)N[C@@H](CCCNC(=N)N)C(=O)N[C@@H](CCSC)C(=O)N[C@@H](CCCCN)C(=O)N[C@@H](Cc1c[nH]c2ccccc12)C(=O)N[C@@H](CCCCN)C(=O)N[C@@H](CCCCN)C(=O)N[C@@H](CCC(=O)O)C(=O)N[C@@H](CC(C)C)C(=O)N[C@@H](CS)C(=O)N[C@@H](CCC(N)=O)C(=O)N[C@@H](C)C(=O)N[C@@H](CC(C)C)C(=O)N[C@@H](CO)C(=O)N[C@@H](CCCNC(=N)N)C(=O)N[C@@H](CO)C(=O)N[C@@H](Cc1c[nH]cn1)C(=O)N[C@@H](CS)C(=O)N[C@@H](CCCNC(=N)N)C(=O)O [TR5] (H-RQIKIWFQNRRMKWKKELCQALSRSHCR-OH)	significantly inhibited	moderately inhibited	stronger inhibition	inhibit potently	inhibited	statistically significant	potently inhibited	20	–	–	–
RQIKIWFQNRRMKWKKAAYPPELRFMYYVD [TR9]	significantly inhibited	moderately inhibited	stronger inhibition	inhibit potently	inhibited	statistically significant	potently inhibited	20	–	–	–
RQIKIWFQNRRMKWKKCLQDAIDHSGFT [TF5]	–	–	–	–	–	–	–	20	inhibit	inhibit	–
RQIKIWFQNRRMKWKKEGSQASLRCF [TR3]	significantly inhibited	moderately inhibited	stronger inhibition	inhibit potently	inhibited	statistically significant	potently inhibited	–	–	–	–
RQIKIWFQNRRMKWKKGGFYQVKEAVIHY [TR11]	significantly inhibited	moderately inhibited	stronger inhibition	inhibit potently	inhibited	statistically significant	potently inhibited	20	–	–	–
RQIKIWFQNRRMKWKKPGFLRDPWCKYQML [TR6]	significantly inhibited	moderately inhibited	stronger inhibition	inhibit potently	inhibited	statistically significant	potently inhibited	–	–	–	blocked
